Our source for the melting point values is patent US6921763B2, “Pyrazolopyrimidines as therapeutic agents” (Abbott Laboratories, priority 1999, dated 2005).

Structures are written as SMILES.

As a reminder, the melting point is the temperature, or range, at which the solid turns liquid. Regarding `Nc1ncnc2c1c(-c1ccc(Oc3ccccc3)cc1)nn2[C@H]1CC[C@@H](N2CCNCC2)CC1.O=C(O)/C=C\C(=O)O.O=C(O)/C=C\C(=O)O.O=C(O)/C=C\C(=O)O`, the melting point fell in the range of 173 to 175 °C.

`Nc1ncnc2c1c(-c1ccc(Oc3ccccc3)cc1)nn2[C@H]1CC[C@H](N2CCNCC2)CC1.O=C(O)/C=C\C(=O)O.O=C(O)/C=C\C(=O)O.O=C(O)/C=C\C(=O)O` returned a melting point of 153 to 155 °C.

`Nc1ncnc2c1c(-c1ccc(Oc3ccccc3)cc1)nn2C1CCOCC1`: the melting point is 187 to 187.5 °C.

The molecule `Nc1ncnc2c1c(-c1ccc(Oc3ccccc3)cc1)nn2C1CCC2(CC1)OCCO2` showed a melting point of 200 to 202.5 °C.
